What all share (assay): 3H GABA uptake, corrected iPSC astrocytes transfected with GAT-1^YFP cDNA
Assay type in all cases: cell-based

For one test, the target named is T1, GAT-1 V125M (Rattus norvegicus, UniProt P23978, V125M).
T1 construct: The coding region of rGAT-1 was inserted into pEYFP-C1 (Clontech, Palo Alto, CA); expressed in transfected cells; host or cells: HEK293T cells (A3); astrocytes from corrected human iPSCs (A23)
To be noted: 2 mM PBA, 24 hrs. The method, then:
(§1) Live images of human neural progenitor cells (NPCs), astrocytes and GABAergic inhibitory neurons differentiated from the human induced pluripotent stem cells (iPSCs) on the day of experiment. […] The DMSO treated corrected or patient cells was taken as 1. […] GABA flux was measured after 30 min transport at room temperature. The influx of GABA, expressed in pmol/μg protein/min, was averaged from duplicates for each condition and for each transfection. The average counting was DMSO treated condition taken as 1. In FIG. 5B, FIG. 5D and FIG. 5F, 966 stands for CI-966 (50 μM) and 711 stands for NNC-711 (35 μM) that was applied 30 min to the astrocytes transfected with the wildtype GAT-1^YFP before preincubation and removed during preincubation. In FIGS. 5B and D, ***p<0.001 vs. corrected DMSO treated. § § <0.01, § § § p<0.001 vs. patient DMSO treated. […] In FIGS. 5B-E, n=4-8 batches of cells. In FIG. 5F, n=4-5 different transfections). Unpaired t test was used for FIG. 5C and FIG. 5E. One-way analysis of variance followed by a Dunnett post hoc multiple comparison test was used in FIG. 5B, FIG. 5D and FIG. 5F. Values were expressed as mean±S.E.M.).
(§2) The plasmid cDNA encoding enhanced yellow fluorescent protein (EYFP)-tagged rat GAT-1 has been previously described. The coding region of rGAT-1 was inserted into pEYFP-C1 (Clontech, Palo Alto, CA). QuikChange Site-directed Mutagenesis kit was utilized to introduce the GAT-1 variants into a wildtype GAT-1 plasmid. The product was then amplified via polymerase chain reaction, transformed using DH5a competent cells, and plated. A clone was chosen and grown overnight. All the GAT-1 variants were confirmed by DNA sequencing. Both the wildtype and the variant cDNAs were prepared with Qiagen Maxiprep kit.
(§3) Astrocytes were differentiated starting from day 5 of NPC passage 1 with the astrocyte culture medium from Sciencell (catalog 1801) following the protocol as previously described. The cell culture medium was refreshed every other day and the cells were passaged at ˜70% confluency. About 1.5×10^5 cells were seeded in each 35 mm dish or each well in 6-well plate when passaging. The differentiation was continuous until the day 30 and all the astrocytes used in experiments in this study were at day 30 after differentiation.
(§4) Briefly, cells were cultured in […] dishes for 3 days before the GABA uptake experiment in DMEM with 10% fetal bovine serum and 1% penicillin/streptomycin. The cells were then transfected with equal amounts of the wildtype or the mutant GAT-1 cDNAs (1 μg) for each condition at 24 hrs or 48 hrs after plating. GABA uptake assay was carried out 48 hrs after transfection. The cells were incubated with preincubation solution for 15 min and then incubated with preincubation solution containing 1 μci/mL 3H GABA and 10 μM unlabeled GABA for 30 min at room temperature. After washing, the cells were lysed with 0.25 N NaOH for 1 hr. Glacial acetic acid was added, and lysates were then determined on a liquid scintillator with QuantaSmart. The flux of GABA (pmol/μg/min) was averaged with at least triplets for each condition at each transfection. The average counting was taken as n=1. The untransfected condition was taken as a baseline that was subtracted from both the wildtype and the mutant conditions. The pmol/μg/min in the mutant was then normalized to the wildtype from each experiment, which was arbitrarily taken as 100%. The protocols for GABA reuptake assay in cultured mouse astrocytes, neuron or iPSC derived cells were modified from the GABA uptake protocol on HEK 293T cells. GAT-1 inhibitors CL-966 and NNC-711 were applied each time to make sure the radioactive counts were specific.
(§5) The working solution was stored at 4° C.
(§6) Wildtype or the mutant GAT-1^YFP were transfected (1 μg cDNAs per 35 mm^2 dishes) in the astrocytes derived from the corrected iPSCs for 48 hrs. […]

A further test has as its target T2, wildtype GAT-1 (Rattus norvegicus, UniProt P23978).
T2 construct: The coding region of rGAT-1 was inserted into pEYFP-C1 (Clontech, Palo Alto, CA); expressed in transfected cells; host or cells: HEK293T cells (A1); astrocytes from corrected human iPSCs (A21)
To be noted: corrected astrocytes transfected with wt; 2 mM PBA, 24 hrs. The method, then: as §1, §2, §3, §4, §5, §6

The target in another test is T3, GAT-1 G362R (Rattus norvegicus, UniProt P23978, G362R).
T3 construct: The coding region of rGAT-1 was inserted into pEYFP-C1 (Clontech, Palo Alto, CA); expressed in transfected cells; host or cells: human astrocytes differentiated from CRISPR-corrected patient iPSCs
Conditions: 2 mM PBA, 24 hrs. The method, then:
as §1, §2, §3, §4, §5, §6

The next test concerns the target T4, GAT-1 A288V (Rattus norvegicus, UniProt P23978, A288V).
T4 construct: The coding region of rGAT-1 was inserted into pEYFP-C1 (Clontech, Palo Alto, CA); expressed in transfected cells; host or cells: HEK293T cells (A4); astrocytes from corrected human iPSCs (A24)
Conditions: 2 mM PBA, 24 hrs. The method, then: as §1, §2, §3, §4, §5, §6

For the next test, the target named is T5, GAT-1(W495X) (Rattus norvegicus, UniProt P23978).
T5 construct: The coding region of rGAT-1 was inserted into pEYFP-C1 (Clontech, Palo Alto, CA); expressed in transfected cells; host or cells: human astrocytes differentiated from CRISPR-corrected patient iPSCs
Conditions: 2 mM PBA, 24 hrs. The method, then: as §1, §2, §3, §4, §5, §6

A further test addresses T6, GAT-1 D410E (Rattus norvegicus, UniProt P23978, D410E).
T6 construct: The coding region of rGAT-1 was inserted into pEYFP-C1 (Clontech, Palo Alto, CA); expressed in transfected cells; host or cells: HEK293T cells (A7); astrocytes from corrected human iPSCs (A27)
To be noted: 2 mM PBA, 24 hrs. The method, then:
as §1, §2, §3, §4, §5, §6

The target of the next test is GAT-1 L460R (Rattus norvegicus, UniProt P23978, L460R). The arrangement: The coding region of rGAT-1 was inserted into pEYFP-C1 (Clontech, Palo Alto, CA); expressed in transfected cells; host or cells: human astrocytes differentiated from CRISPR-corrected patient iPSCs. To be noted: 2 mM PBA, 24 hrs. The method, then:
as §1, with “One-way analysis of variance followed by a Dunnett post hoc multiple comparison test was used in FIG. 5B, FIG. 5D and FIG. 5F.” left out, “mean±S.E.M.). […]” for “mean±S.E.M.).”
(§7) Briefly, cells were cultured in […] dishes for 3 days before the GABA uptake experiment in DMEM with 10% fetal bovine serum and 1% penicillin/streptomycin. […] Glacial acetic acid was added, and lysates were then determined on a liquid scintillator with QuantaSmart. […]

A further test deals with GAT-1 E16X (Rattus norvegicus, UniProt P23978). The arrangement: The coding region of rGAT-1 was inserted into pEYFP-C1 (Clontech, Palo Alto, CA); expressed in transfected cells; host or cells: human astrocytes differentiated from CRISPR-corrected patient iPSCs. To be noted: 2 mM PBA, 24 hrs. The method, then:
as §1, with “One-way analysis of variance followed by a Dunnett post hoc multiple comparison test was used in FIG. 5B, FIG. 5D and FIG. 5F.” left out, “mean±S.E.M.). […]” for “mean±S.E.M.).”
as §7

The structures appear in SMILES notation.

The text below walks through data of US20260144769A1, “4-PHENYLBUTYRATE RESTORED GABA UPTAKE AND REDUCED SEIZURES IN SLC6A1 VARIANT-MEDIATED DISORDERS” (Vanderbilt University, priority 2022, published 2026).

Take `O=C(O)CCCc1ccccc1` [PBA, 4-phenylbutyric acid]: the “GABA uptake normalized to its DMSO treated” value is recorded as 1.285±0.018 at GAT-1 V125M; 1.188±0.075 at wildtype GAT-1; 1.25±0.023 on GAT-1 G362R; 1.204±0.031 on GAT-1 A288V; 1.45±0.04 on GAT-1(W495X); 1.21±0.022 at GAT-1 D410E. For the same compound, the “GABA uptake normalized to its DMSO treated” value on GAT-1 L460R is reported as 1.18±0.045; at GAT-1 E16X it was 1.182±0.025.
